Drawing on PubChem BioAssay (NCI), this text covers TGI for three compounds.

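Assay format: 96-well plates, 48-hour exposure. TGI is the concentration that stops growth completely.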 Some results are limits rather than exact numbers.

Holding throughout (assay): DTP human tumour cell line panel, 48 h
In experiment [1] the test system is LOX IMVI melanoma.
The subject of experiment [2] is M14 melanoma.
Experiment [3] has as its system NCI-H522 lung.
In experiment [4] the test system is EKVX NSCLC.
Experiment [5] relates to MDA-N.
For experiment [6], the system named is HT29 colon.
Experiment [7] relates to OVCAR-3 ovarian.
For experiment [8], the system named is DU-145 prostate.
Experiment [9] concerns MDA-MB-435.
In experiment [10] the test system is CAKI-1 renal.
For experiment [11], the system named is ACHN renal.
Experiment [12] deals with UACC-257 melanoma.
The subject of experiment [13] is SNB-19 CNS.
In experiment [14] the test system is HL-60(TB) leukemia.
For experiment [15], the system named is SK-MEL-5 melanoma.

As for `Nc1ccn(C2CCC(CO)O2)c(=S)n1` (stereo not given), the TGI in experiment [1], in experiment [2], in experiment [3], in experiment [4], in experiment [5] and in experiment [6] was more than 100 µM each time. Moreover, the concentration for total growth inhibition (TGI) in experiment [7], in experiment [8], in experiment [9], in experiment [10], in experiment [11] and in experiment [12] was more than 100 µM throughout. The TGI in experiment [13], in experiment [14] and in experiment [15] was more than 100 µM throughout.
Take `O=C(Nc1ccccc1)N(C1=NCC(CI)S1)c1ccc(F)cc1F` (stereo not given): the total growth inhibition concentration (TGI) – broadly, the concentration giving total growth inhibition – in experiment [1] is 35.2 µM; in experiment [2] it was more than 100 µM; in experiment [3], more than 100 µM; in experiment [4], more than 100 µM; in experiment [5], more than 100 µM; in experiment [6] it was more than 100 µM. The concentration for total growth inhibition (TGI) was more than 100 µM in experiment [7]; more than 100 µM in [8]; more than 100 µM in experiment [9]; 66.9 µM in experiment [10]; more than 100 µM in experiment [11]; 84 µM in experiment [12]. The figures for the TGI in experiment [13], in experiment [14] and in [15] were more than 100 µM, 48 µM and more than 100 µM, respectively.
Turning to `CCCCCCOc1ccc(C(=O)NO)cc1`, the TGI in [1] came out at 20.7 µM; in [2] it was 34 µM; in experiment [3], 19.7 µM; in experiment [4], 52.7 µM; in experiment [5], 34.1 µM; in experiment [6] it was 22.7 µM. The total growth inhibition concentration (TGI) is 28.6 µM in [7]; 18.2 µM in experiment [8]; 38.5 µM in experiment [9]; 19.2 µM in experiment [10]; 21.5 µM in [11]; more than 91.5 µM in experiment [12]. Also, the TGI in [13] was 54.8 µM; in experiment [14] it was 14 µM; in experiment [15], more than 58.2 µM.
